Test results published in patent US12599596B2, “Anti-tumor pharmaceutical composition based on immune checkpoint blockade and use thereof” (Shanghai Hui Tian Jin Ze Biotech Co., Ltd., priority 2023, dated 2026).

Tests used:
[1] = system: PD-L1 on RKO colon cancer cell membranes; experiment: PD-L1 on cell membrane by immunofluorescence; type: cell-based; conditions: 20 μM CBD, different time
Experimental: • (1) Different types of tumor cells (RKO, HCT116 and HT29 colon cancer cells, and A549, H1975 and H460 lung cancer cells) in the logarithmic growth phase were respectively inoculated on a 6-well plate at an inoculum density of 2.5×10^5 cells/well with 2 mL/well and then placed in a cell incubator overnight incubation. The culture mixture was removed, CBD at different concentrations (0 μM, 5 μM, 10 μM, and 20 μM) was added for treatment for 24 h, the supernatant was removed, and the cells were washed with PBS 2 times, digested with pancreatin, centrifuged at 300×g and 4° C. for 5 min, and collected. The cells were washed with precooled PBS 2 times, centrifuged at 300×g and 4° C. for 5 min, and collected. The cells were washed 2 times with precooled PBS, 100 μL of PBS was added to resuspend the cells, an anti-PD-L1-Alexa Fluor 647 antibody was added, the cells were incubated at room temperature for 30 min and centrifuged at 300×g and 4° C. for 5 min, 300 μL of PBS was added to resuspend the cells in a flow tube, and an Alexa Fluor 647 signal was detected from the sample using a flow cytometer (excitation/emission wavelength of 647 nm/666 nm). • (2) The colorectal cancer cells (RKO) in the logarithmic growth phase were inoculated into a 6-well plate at a density of 2.5×10^5 cells/well, with a 2 mL volume of the suspension in each well. […]

MC38 colon cancer cells [2] = experiment: MC38 subcutaneous tumor model, curcumin-administrated groups, Embodiment 4; type: in vivo, C57BL/6 mice; conditions: CBD 100 mg/kg, curcumin 50 mg/kg, piperine 1 mg/kg, vitamin E 50 mg/kg, thymosin 2 mg/kg; vs control
Experimental: MC38 colon cancer cells were inoculated into 6-week-old female C57BL/6 mice (1×10^6 cells/mouse) to establish a subcutaneous tumor model. After the tumor volume reached 50 mm^3, the mice in the artemisinin-administered groups were grouped and administered with the following pharmaceutical combinations: (1) control group, (2) CBD (100 mg/kg)+vitamin E(α-tocopherol) (50 mg/kg)+thymosin (2 mg/kg) group, and (3) CBD (100 mg/kg)+artemisinin (20 mg/kg)+vitamin E(α-tocopherol) (50 mg/kg)+thymosin (2 mg/kg). The mice in curcumin-administrated group were grouped and administered with the following pharmaceutical combinations: (1) control group, (2) CBD (100 mg/kg) group, (3) curcumin (50 mg/kg)+piperine (1 mg/kg) group, (4) CBD (100 mg/kg)+curcumin (50 mg/kg)+piperine group (1 mg/kg), and (5) CBD (100 mg/kg)+curcumin (50 mg/kg)+piperine (1 mg/kg)+vitamin E(α-tocopherol) (50 mg/kg)+thymosin (2 mg/kg).
The tumor growth volume of the mice was monitored once every 2 days. The tumor volume was calculated as follows: tumor volume (mm^3)=0.5×(length)x(width)^2. The mice were sacrificed 14 days after drug administration, and the tumors were dissected. […]

MC38 colon cancer cells [3] = experiment: MC38 subcutaneous tumor model in C57BL/6 mice, Embodiment 5; type: in vivo; conditions: for Tumor volume: CBD 100 mg/kg, PAR 5 mg/kg, vitamin E 50 mg/kg
Experimental: MC38 colon cancer cells were inoculated into 6-week-old female C57BL/6 mice (1×10^6 cells/mouse) to establish a subcutaneous tumor model. After the tumor volume reached 50 mm^3, the mice were grouped and administered with the following pharmaceutical combinations: (1) control group (no drug administration), (2) anti-PD-1 ([…] per time) group, (3) vitamin E(α-tocopherol) (50 mg/kg) group, (4) CBD (100 mg/kg) group, (5) CBD (100 mg/kg)+vitamin E(α-tocopherol) (50 mg/kg) group, (6) PAR (5 mg/kg) group, (7) PAR (5 mg/kg)+vitamin E(α-tocopherol) (50 mg/kg) group, (8) CBD (100 mg/kg)+PAR (5 mg/kg) group, and (9) PAR (5 mg/kg)+CBD (100 mg/kg)+vitamin E(α-tocopherol) (50 mg/kg) group.
The tumor weight, tumor volume, and mouse body weight were monitored once every 2 days. The tumor volume was calculated as follows: tumor volume (mm^3)=0.5×(length)×(width)^2. The mice were sacrificed 14 days after drug administration, and the tumors were dissected.
The dissolving mode of the pharmaceutical composition was as follows: the pharmaceutical composition was dissolved in 10% DMSO+corn oil, the mice were gavaged with the pharmaceutical composition at 100 μl/mice, and the mice in the control group were injected with the same volume of the solvent.

## C=C(C)[C@@H]1CCC(C)=C[C@H]1c1c(O)cc(CCCCC)cc1O [CBD, cannabidiol]
[1]
  expression of PD-L1 on cell membranes (immunofluorescence): time-dependently decreased the expression of PD-L1
MC38 colon cancer cells [2]
  tumor growth / anti-tumor effect in words: inhibited to a certain degree
MC38 colon cancer cells [3]; Day 0
  Tumor volume: 0 mm^3
MC38 colon cancer cells [3]; Day 4
  Tumor volume: 63.99 mm^3
MC38 colon cancer cells [3]; Day 6
  Tumor volume: 113.24 mm^3
MC38 colon cancer cells [3]; Day 8
  Tumor volume: 120.48 mm^3
MC38 colon cancer cells [3]; Day 10
  Tumor volume: 176.51 mm^3
MC38 colon cancer cells [3]; Day 12
  Tumor volume: 241.75 mm^3
MC38 colon cancer cells [3]; Day 14
  Tumor volume: 314.83 mm^3
MC38 colon cancer cells [3]; Day 16
  Tumor volume: 359.72 mm^3
MC38 colon cancer cells [3]; normal mice, Embodiment 5, comparison between groups
  therapeutic / tumor inhibition effect in words: equivalent therapeutic effects
